According to PMC5779714, “Metallochaperone UreG serves as a new target for design of urease inhibitor: A novel strategy for development of antimicrobials” (PLoS Biology, 2018):
Several values for one entry are separate records, joined by “and”; a condition that tells them apart may be missing. Equal entries are not always repeated. Where two headings read alike, the source gives them in different places.

Legend:
[1] = biological target: urease from jack bean, P. mirabilis, and K. aerogenes; details: competitive inhibitor; cited from earlier work
UreG [2] = biological target: T1, UreG (Helicobacter pylori, UniProt Q09066); assay: biochemical; assay type: biochemical, H. pylori
Protocol: (§1) A Malachite Green Phosphate Assay Kit (Abcam) was utilized to quantify the hydrolysis of GTP by UreG under various conditions. […] GTPase activity of UreG was triggered through the addition of 10 mM KHCO3, after which the reaction was incubated at 37°C for 30 min; then, the free phosphate from hydrolysis of GTP was determined. […] To eliminate the potential effect of small compounds on malachite green assay, the assay included a subtraction of the absorbance of reaction with the same amounts of compounds but without UreG enzyme for each reading.

urease [3] = assay: Phenol-hypochlorite urease assay, lysate of E. coli with urease gene cluster excluding ureG (pHP8080ΔG) supplemented with metal-treated UreG
UreG [4] = biological target: T1, UreG
Protocol: as §1
(PNG) Click here for additional data file.

H. pylori urease [5] = biological target: T2, H. pylori urease (Helicobacter pylori, UniProt P14916+P69996); assay: cell-based; assay type: cell-based
Target sequence in this assay (P14916 whole entry, looked up): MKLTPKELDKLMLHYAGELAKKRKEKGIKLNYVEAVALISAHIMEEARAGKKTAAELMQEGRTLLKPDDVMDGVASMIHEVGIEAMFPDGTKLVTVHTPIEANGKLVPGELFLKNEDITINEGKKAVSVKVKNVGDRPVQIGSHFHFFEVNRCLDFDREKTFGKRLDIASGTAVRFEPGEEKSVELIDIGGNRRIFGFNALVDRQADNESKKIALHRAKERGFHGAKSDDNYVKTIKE
Target sequence in this assay (P69996 whole entry, looked up): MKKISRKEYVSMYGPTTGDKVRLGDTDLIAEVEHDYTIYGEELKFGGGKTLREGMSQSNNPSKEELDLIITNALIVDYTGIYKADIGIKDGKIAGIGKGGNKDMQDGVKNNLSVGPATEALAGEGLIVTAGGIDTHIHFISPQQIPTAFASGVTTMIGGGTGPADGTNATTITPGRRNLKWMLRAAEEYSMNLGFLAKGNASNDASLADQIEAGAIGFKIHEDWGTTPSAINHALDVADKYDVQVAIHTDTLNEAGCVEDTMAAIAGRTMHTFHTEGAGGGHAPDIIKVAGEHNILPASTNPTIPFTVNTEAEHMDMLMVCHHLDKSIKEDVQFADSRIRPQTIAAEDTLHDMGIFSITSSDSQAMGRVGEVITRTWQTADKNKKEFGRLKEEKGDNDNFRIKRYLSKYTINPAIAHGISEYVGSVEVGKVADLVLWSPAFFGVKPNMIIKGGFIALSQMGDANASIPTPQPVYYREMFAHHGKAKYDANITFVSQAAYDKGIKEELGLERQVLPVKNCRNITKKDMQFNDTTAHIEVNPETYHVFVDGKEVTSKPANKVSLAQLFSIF

urease [6] = biological target: T3, urease (Proteus mirabilis, UniProt P17086+P17087+P17088); assay type: biochemical
T3 construct: endogenous in cells

urease [7] = biological target: T4, urease (Pseudomonas aeruginosa, UniProt Q9HUU5+Q9HUU6+Q9HUU8); assay: Urease activity of extracted P. aeruginosa urease (in vitro); assay type: biochemical
T4 construct: endogenous in cells

urease [8] = system: urease
urease [9] = system: urease; remark: listed apart in the source
urease [10] = system: urease; remark: listed apart in the source
urease [11] = system: urease; remark: listed apart in the source
H. pylori = assay: Growth of H. pylori in neutral and acidic brucella broth (OD600); assay type: cell-based
[12] = system: AGS cells exposed to H. pylori; assay: Cell infection model: AGS cells exposed to H. pylori pre-cultured with inhibitors; assay type: cell-based, human; details: H. pylori pre-cultured with 10 μM inhibitor 24 h; MOI 20; 24 h infection; Hp alone 28.8%
[13] = system: AGS cells with H. pylori infection; assay: AGS cells with H. pylori infection, inhibitors administrated to the AGS cells (S20 Fig); assay type: cell-based, human; details: 10 μM administrated to AGS cells with H. pylori infection
From the text: As expected, low viability of AGS with the supplement of cmpd4 and cmpd8 was observed due to the toxicity of small compounds to mammalian cells. […] (PNG) Click here for additional data file.

urease [14] = system: urease; remark: listed apart in the source
urease [15] = system: urease; remark: listed apart in the source
urease [16] = system: urease; remark: listed apart in the source
Target sequence in this assay (Q9HUU5 whole entry): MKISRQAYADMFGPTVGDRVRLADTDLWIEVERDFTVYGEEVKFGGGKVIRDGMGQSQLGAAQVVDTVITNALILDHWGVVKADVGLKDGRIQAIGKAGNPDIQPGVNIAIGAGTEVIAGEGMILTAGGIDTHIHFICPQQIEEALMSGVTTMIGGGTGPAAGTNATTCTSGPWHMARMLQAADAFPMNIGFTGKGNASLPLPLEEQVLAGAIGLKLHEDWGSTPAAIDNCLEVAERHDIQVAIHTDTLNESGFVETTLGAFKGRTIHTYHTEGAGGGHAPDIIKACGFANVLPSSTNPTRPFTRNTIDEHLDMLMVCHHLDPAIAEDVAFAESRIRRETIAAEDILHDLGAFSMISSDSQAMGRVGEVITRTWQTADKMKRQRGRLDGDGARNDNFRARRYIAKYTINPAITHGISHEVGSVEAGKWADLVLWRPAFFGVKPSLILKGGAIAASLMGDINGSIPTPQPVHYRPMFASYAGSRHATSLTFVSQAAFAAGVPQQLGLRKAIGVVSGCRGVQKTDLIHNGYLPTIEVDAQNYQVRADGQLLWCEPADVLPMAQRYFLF
Target sequence in this assay (Q9HUU6 whole entry, further chain): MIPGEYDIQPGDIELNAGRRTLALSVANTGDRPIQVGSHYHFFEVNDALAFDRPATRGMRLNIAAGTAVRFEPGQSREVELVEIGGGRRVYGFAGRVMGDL
Target sequence in this assay (Q9HUU8 whole entry, further chain): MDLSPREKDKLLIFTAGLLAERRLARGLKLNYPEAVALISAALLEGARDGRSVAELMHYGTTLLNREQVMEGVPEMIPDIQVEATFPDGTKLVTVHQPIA

urease [17] = system: urease; remark: listed apart in the source
H. pylori urease [18] = biological target: T2, H. pylori urease; assay type: biochemical; set-up: endogenous in cells; host or cells: H. pylori strain 26695 or a clinical isolate
Target sequence in this assay (P69996 whole entry): as the sequence (P69996 whole entry, looked up) above
Target sequence in this assay (P14916 whole entry): as the sequence (P14916 whole entry, looked up) above

[19] = increasing amounts of CBS during bacterial growth

T1 sequence (Q09066 whole entry): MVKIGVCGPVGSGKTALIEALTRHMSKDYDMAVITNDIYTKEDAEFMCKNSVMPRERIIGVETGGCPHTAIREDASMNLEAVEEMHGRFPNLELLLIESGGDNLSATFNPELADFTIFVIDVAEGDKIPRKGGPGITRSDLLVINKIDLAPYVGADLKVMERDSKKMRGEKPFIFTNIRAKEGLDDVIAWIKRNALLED
T4 sequence (Q9HUU6 whole entry): as the sequence (Q9HUU6 whole entry, further chain) above
T4 sequence (Q9HUU5 whole entry): as the sequence (Q9HUU5 whole entry) above
T4 sequence (Q9HUU8 whole entry): as the sequence (Q9HUU8 whole entry, further chain) above
T3 sequence (P17087 whole entry): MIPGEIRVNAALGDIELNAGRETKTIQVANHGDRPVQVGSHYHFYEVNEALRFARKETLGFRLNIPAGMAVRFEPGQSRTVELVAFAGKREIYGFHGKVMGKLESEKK
T3 sequence (P17088 whole entry): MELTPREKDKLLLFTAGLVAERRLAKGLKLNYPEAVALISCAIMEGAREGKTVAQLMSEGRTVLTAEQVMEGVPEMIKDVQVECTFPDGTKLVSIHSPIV
T3 sequence (P17086 whole entry): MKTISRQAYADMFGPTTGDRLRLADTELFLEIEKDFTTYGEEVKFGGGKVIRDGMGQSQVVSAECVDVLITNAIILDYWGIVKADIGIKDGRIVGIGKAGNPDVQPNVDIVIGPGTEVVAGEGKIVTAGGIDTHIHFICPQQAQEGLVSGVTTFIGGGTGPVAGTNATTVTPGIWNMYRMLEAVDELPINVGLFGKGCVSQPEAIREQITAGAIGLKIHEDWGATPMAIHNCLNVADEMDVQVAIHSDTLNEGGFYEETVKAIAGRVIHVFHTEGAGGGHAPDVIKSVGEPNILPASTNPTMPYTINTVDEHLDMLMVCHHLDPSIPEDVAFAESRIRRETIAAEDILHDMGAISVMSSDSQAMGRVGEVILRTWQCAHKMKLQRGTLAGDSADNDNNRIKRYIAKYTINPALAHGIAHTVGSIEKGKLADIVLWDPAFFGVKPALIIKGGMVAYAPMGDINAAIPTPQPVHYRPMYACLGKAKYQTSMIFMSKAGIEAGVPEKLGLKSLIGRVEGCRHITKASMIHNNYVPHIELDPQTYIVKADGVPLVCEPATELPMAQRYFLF

In the case of `OB(O)O` [boric acid], the Ki [1] is given as “mM levels”.
For `[Bi+3]` [Bi(III), reference compound], the “Normalized GTPase activity(%)” value (UreG [2]; Ni-UreG+Bix1) was 29.0%, the “Normalized GTPase activity(%)” value (UreG [2]; Ni-UreG+Bix2) was 0.8% and the “Normalized GTPase activity(%)” value (UreG [2]; Ni-UreG+Bix3) was 1.7%. For the same compound, the “inhibition of GTPase enzyme activity” value (UreG [2]; further addition of Bi(III) to Ni-UreG) was “complete inhibition”, the “Normalized urease activity(%)” value (urease [3]; Ni-UreG+Bix1, incubation 40 min) was 47.6% and the “Normalized urease activity(%)” value (urease [3]; Ni-UreG+Bix2, incubation 40 min) was 9.3%. For the same compound, the “Normalized urease activity(%)” value (urease [3]; Ni-UreG+Bix3, incubation 40 min) was 5.8%.
In the case of colloidal bismuth subcitrate [CBS], the “Normalized GTPase activity(%)” value (UreG [4]; CBS 20 μM) is reported as 50.4%, the “Normalized GTPase activity(%)” value (UreG [4]; CBS 50 μM) is reported as 22.6% and the “Normalized GTPase activity(%)” value (UreG [4]; CBS 100 μM) is reported as 35.8%. The “Normalized GTPase activity(%)” value (UreG [4]; CBS 200 μM) was 20.4%, the “GTPase activity compared with that without CBS treatment” value (UreG [4]; [19]) was “approximately 20%” and the “Normalized urease activity(%) (in vivo)” value (H. pylori urease [5]; CBS 2.0 μM) was 89.4%. The “Normalized urease activity(%) (in vivo)” value (H. pylori urease [5]; CBS 5.0 μM) was 57.6%, the “Normalized urease activity(%) (in vivo)” value (H. pylori urease [5]; CBS 10.0 μM) was 35.6% and the “Normalized urease activity(%) (in vivo)” value (H. pylori urease [5]; CBS 20.0 μM) was 10.2%. The “drop in urease activity” value (H. pylori urease [5]; CBS 20 μM in culture medium) was “ca. 90%”, the “Normalized urease activity(%)” value (H. pylori urease [5]; log(CBS[μM]) 0) was 94.7245% and the “Normalized urease activity(%)” value (H. pylori urease [5]; log(CBS[μM]) 0.30103) was 89.449%. For the same compound, the “Normalized urease activity(%)” value (H. pylori urease [5]; log(CBS[μM]) 0.69897) was 57.604%, the “Normalized urease activity(%)” value (H. pylori urease [5]; log(CBS[μM]) 0.845098) was 46.6188% and the “Normalized urease activity(%)” value (H. pylori urease [5]; log(CBS[μM]) 1) was 35.6336%. For the same compound, the “Normalized urease activity(%)” value (H. pylori urease [5]; log(CBS[μM]) 1.17609) was 22.938%, the “Normalized urease activity(%)” value (H. pylori urease [5]; log(CBS[μM]) 1.30103) was 10.2424% and the “Normalized urease activity(%)” value (H. pylori urease [5]; log(CBS[μM]) 1.39794) was 10.165%. The “Normalized urease activity(%)” value (H. pylori urease [5]; log(CBS[μM]) 1.47712) was 10.0876%, the “Normalized urease activity(%) (in vitro)” value (urease [6]; CBS 2.0 μM) was 105.5% and the “Normalized urease activity(%) (in vitro)” value (urease [6]; CBS 5.0 μM) was 122.1%. The “Normalized urease activity(%) (in vitro)” value (urease [6]; CBS 10.0 μM) was 103.7%, the “Normalized urease activity(%) (in vitro)” value (urease [6]; CBS 20.0 μM) was 121.2% and the “Normalized urease activity(%) (in vitro)” value (urease [6]; CBS 50.0 μM) was 96.7%. For the same compound, the “Normalized urease activity(%) (in vitro)” value (urease [6]; CBS 100.0 μM) was 105.5%, the “Normalized urease activity(%) (in vitro)” value (urease [6]; CBS 200.0 μM) was 111.5% and the “Normalized urease activity(%) (in vitro)” value (urease [7]; CBS 2.0 μM) was 102.2%. For the same compound, the “Normalized urease activity(%) (in vitro)” value (urease [7]; CBS 5.0 μM) was 93.5%, the “Normalized urease activity(%) (in vitro)” value (urease [7]; CBS 10.0 μM) was 100.7% and the “Normalized urease activity(%) (in vitro)” value (urease [7]; CBS 20.0 μM) was 99.1%. The “Normalized urease activity(%) (in vitro)” value (urease [7]; CBS 50.0 μM) was 95.8%, the “Normalized urease activity(%) (in vitro)” value (urease [7]; CBS 100.0 μM) was 101.3% and the “Normalized urease activity(%) (in vitro)” value (urease [7]; CBS 200.0 μM) was 99.8%. For the same compound, the “Normalized urease activity(%) (in vitro)” value (urease [8]; CBS 25.0 μM) was 111.2%, the “Normalized urease activity(%) (in vitro)” value (urease [8]; CBS 50.0 μM) was 127.8% and the “Normalized urease activity(%) (in vitro)” value (urease [8]; CBS 100.0 μM) was 125.1%. For the same compound, the “Normalized urease activity(%) (in vitro)” value (urease [8]; CBS 200.0 μM) was 113.5%, the “Normalized urease activity(%) (in vitro)” value (urease [9]; CBS 25.0 μM) was 109.8% and the “Normalized urease activity(%) (in vitro)” value (urease [9]; CBS 50.0 μM) was 113.4%. The “Normalized urease activity(%) (in vitro)” value (urease [9]; CBS 100.0 μM) was 105.1%, the “Normalized urease activity(%) (in vitro)” value (urease [9]; CBS 200.0 μM) was 103.9% and the “Normalized urease activity(%) (in vitro)” value (urease [10]; CBS 2.0 μM) was 87.7%. For the same compound, the “Normalized urease activity(%) (in vitro)” value (urease [10]; CBS 5.0 μM) was 84.1%, the “Normalized urease activity(%) (in vitro)” value (urease [10]; CBS 10.0 μM) was 87.2% and the “Normalized urease activity(%) (in vitro)” value (urease [10]; CBS 50.0 μM) was 91.4%. For the same compound, the “Normalized urease activity(%) (in vitro)” value (urease [10]; CBS 100.0 μM) was 87.4%, the “Normalized urease activity(%) (in vitro)” value (urease [10]; CBS 200.0 μM) was 86.8% and the “Normalized urease activity(%) (in vitro)” value (urease [11]; CBS 2.0 μM) was 117.5%. For the same compound, the “Normalized urease activity(%) (in vitro)” value (urease [11]; CBS 5.0 μM) was 100.8%, the “Normalized urease activity(%) (in vitro)” value (urease [11]; CBS 10.0 μM) was 95.4% and the “Normalized urease activity(%) (in vitro)” value (urease [11]; CBS 20.0 μM) was 96.5%. For the same compound, the “Normalized urease activity(%) (in vitro)” value (urease [11]; CBS 50.0 μM) was 100.0%, the “Normalized urease activity(%) (in vitro)” value (urease [11]; CBS 100.0 μM) was 106.8% and the “Normalized urease activity(%) (in vitro)” value (urease [11]; CBS 200.0 μM) was 98.8%. For the same compound, the “OD600(pH5)” value (H. pylori; acidic brucella broth pH 5.0, 24 h, control 0.93) was 0.23 and 0.239, the “OD600 (pH7)” value (H. pylori; neutral medium, 24 h, control 0.18) was 0.127 and the “Normalized cell survival (%)” value [12] was 65.8% ± 9.9% and 65.7658%. For the same compound, the “Ammonia in medium” value [13] was 0.6839 mM, the “Normalized cell survival (%)” value [13] was 78.3784% and the “Normalized urease activity(%)” value (urease [14]; CBS 20 μM) was 63.4%. The “Normalized urease activity(%)” value (urease [14]; CBS 50 μM) was 37.9%, the “Normalized urease activity(%)” value (urease [14]; CBS 100 μM) was 37.9% and the “Normalized urease activity(%)” value (urease [14]; CBS 200 μM) was 25.6%. The “ureolytic activity compared with that without CBS treatment” value (urease [14]; [19]) was “approximately 20%”, the “Normalized urease activity(%)” value (urease [15]; log(CBS[μM]) 1.29073) was 42.0322% and the “Normalized urease activity(%)” value (urease [15]; log(CBS[μM]) 1.59176) was 39.1227%. For the same compound, the “Normalized urease activity(%)” value (urease [15]; log(CBS[μM]) 1.89279) was 25.3581%, the “Normalized urease activity(%)” value (urease [15]; log(CBS[μM]) 2.19382) was 25.0224% and the “Normalized urease activity(%)” value (urease [16]; log(CBS[μM]) 0.69897) was 76.4151%. For the same compound, the “Normalized urease activity(%)” value (urease [16]; log(CBS[μM]) 1) was 79.2453%, the “Normalized urease activity(%)” value (urease [16]; log(CBS[μM]) 1.30103) was 68.1604% and the “Normalized urease activity(%)” value (urease [16]; log(CBS[μM]) 1.79588) was 36.5566%. For the same compound, the “Normalized urease activity(%) (in vivo)” value (urease [17]; CBS 1.5 μM) was 92.5%, the “Normalized urease activity(%) (in vivo)” value (urease [17]; CBS 3.0 μM) was 74.5% and the “Normalized urease activity(%) (in vivo)” value (urease [17]; CBS 6.0 μM) was 62.3%. The “Normalized urease activity(%) (in vivo)” value (urease [17]; CBS 12.0 μM) was 64.2%, the “Normalized urease activity(%) (in vivo)” value (urease [17]; CBS 25.0 μM) was 41.5% and the “Normalized urease activity(%)” value (urease [17]; log(CBS[μM]) 0.176091) was 92.4528%. The “Normalized urease activity(%)” value (urease [17]; log(CBS[μM]) 0.477121) was 74.5283%, the “Normalized urease activity(%)” value (urease [17]; log(CBS[μM]) 1.39794) was 41.5094% and the “Normalized urease activity(%)” value (urease [17]; log(CBS[μM]) 3) was 16.0377%. For the same compound, the “Normalized urease activity(%)” value (urease [17]; log(CBS[μM]) 3.30103) was 13.2075%, the “Normalized urease activity(%)” value (urease [17]; log(CBS[μM]) 3.60206) was 20.7547% and the “Normalized urease activity(%) (in vitro)” value (H. pylori urease [18]; CBS 2.0 μM) was 102.1%. For the same compound, the “Normalized urease activity(%) (in vitro)” value (H. pylori urease [18]; CBS 5.0 μM) was 93.2%, the “Normalized urease activity(%) (in vitro)” value (H. pylori urease [18]; CBS 10.0 μM) was 103.8% and the “Normalized urease activity(%) (in vitro)” value (H. pylori urease [18]; CBS 20.0 μM) was 86.7%. For the same compound, the “Normalized urease activity(%) (in vitro)” value (H. pylori urease [18]; CBS 30.0 μM) was 92.9%, the “Normalized urease activity(%) (in vitro)” value (H. pylori urease [18]; CBS 50.0 μM) was 109.1% and the “Normalized urease activity(%) (in vitro)” value (H. pylori urease [18]; CBS 100.0 μM) was 102.9%. For the same compound, the “Normalized urease activity(%) (in vitro)” value (H. pylori urease [18]; CBS 200.0 μM) was 94.9% and the “inhibitory effect on extracted H. pylori urease” value (H. pylori urease [18]; CBS up to 400 μM) was “little inhibitory effect”.
